Test results reported in US20100160454A1, “ANTIMICROBIAL AGENTS, COMPOSITIONS AND PRODUCTS CONTAINING THE SAME, AND METHODS OF USING THE COMPOSITIONS AND PRODUCTS” (Eastman Chemical Company, priority 2008, published 2010).

Columns and labels:
Experiment in all cases: Microbiological challenge testing in BPW broth, graded subculture counts
Type in all cases: cell-based
[1] = system: Candida albicans Wild type; settings: C. albicans
Experimental: (§1) The microorganisms in the table below were used in challenge tests. They were either ATCC (American Type Culture Collection) or “wild type” as indicated. Wild type organisms were problematic organisms previously isolated from chemical products.
(§2) All of the microorganisms were grown in Tryptose Soy Broth (TSB), DIFCO™ available from Becton, Dickinson and Company, containing 1% dextrose. Candida albicans and Aspergillus niger, were incubated at 22° C.+/−2° C. for at least 96 hours. All bacteria were incubated at 35° C.+/−2° C. in a humidified incubator for at least 96 hours.
(§3) Candida albicans and Aspergillus niger were also grown on Sabouraud Dextrose Agar (SABD) at 22° C. for 7 to 14 days or until full sporulation was achieved.
(§4) The following procedure was followed to determine the amount of each challenge material (inoculum broth) needed to produce a 10^8 CFU/mL challenge, which is equivalent to a final test-sample microbial concentration of 10^5 to 10^6 CFU/mL (CFU=colony forming units).
(§5) Using a sterile pipette, 1 mL of the growth from each TSB culture was transferred into tubes of 9 mL buffered water (pH 7.2 phosphate buffer) and mixed thoroughly. This was repeated to make serial 1:10 dilutions. Then, 0.1 mL of each sample and dilution was inoculated onto agar plates to produce the equivalent of a further 1:10 dilution. (C. albicans and A. niger were inoculated onto SABD and bacteria were inoculated onto Plate Count Agar (PCA), DIFCO™ available from Becton, Dickinson and Company.) (The normal volume plated for most samples was 0.1 mL. Some samples that could be very low in micro-organisms (high dilutions) were plated using 0.5 mL of inoculum, in order to produce reproducible counts.) The samples were distributed on the plates using the spread-plate technique. The spread-plate technique is carried out by spreading the sample over the entire plate surface using a sterile spreading rod while rotating the plate with a rotary auto-plater. After the inoculum was absorbed completely by the agar, each plate was inverted and incubated (fungi at 22° C.+/−2° C. and bacteria at 35° C.+/−2° C.).
(§6) After incubation for at least 48 hours, colonies that had developed on the agar plates were counted (CFU) and recorded with the corresponding dilution. If counting had to be delayed temporarily, plates were refrigerated, preferably no more than 24 hours, until they could be counted. The number of CFU/mL was determined by multiplying the plate count by the dilution factor of the plate counted.
(§7) Turbidity in Nepholemetric Turbidity Units (NTU) was measured for each serial dilution using the HF-Micro 100 Model Turbidimeter. For each microorganism, the plate counts were compared to the turbidity readings.
On the day of challenge, the Candida albicans inoculum broth was poured through nonabsorbent sterile gauze and centrifuged. The […] was then diluted with buffered water (pH 7.2 phosphate buffer) until the desired turbidity was reached. Using a hemocytometer, a determination was made whether the challenge contained the desired concentration. Dilutions were made through 1.0×10^8 and three SABD spread plates were inoculated with 0.1 mL of each dilution. The plates were incubated for at least 48 hours and challenge counts were confirmed.
(§8) Control substrates (“broth alone”) were prepared for each microorganism separately in triplicate by adding 13.5 mL of Buffered Peptone Water broth (BPW) containing 1% dextrose to each 20-mL glass tube, then adding 1.5 mL challenge material to produce a final concentration at time zero of 10^5 to 10^6 CFU/mL and a total volume of 15 mL.

[2] = system: Burkholderia cepacia Wild type; settings: B. cepacia
Experimental: as §1, §2, §4, §5, §6, §7, §8
(§9) Test sample substrates were prepared containing each test material listed below at the concentrations shown for challenge testing with each microorganism separately. Sample substrates were prepared in triplicate, except the substrates containing butoxyethanol which were prepared in duplicate. Substrates were prepared by adding BPW containing 1% dextrose to each 20-mL glass tube, then adding the test material in the amount appropriate to achieve the desired weight/volume percent and to achieve a total volume of BPW plus dextrose plus test material of 13.5 mL. Then 1.5 mL challenge material was added to produce a final concentration at time zero of 10^5 to 10^6 CFU/mL and a total test sample substrate volume of 15 mL.

[3] = system: Staphylococcus aureus ATCC 25923; settings: S. aureus
Experimental: as §1, §2, §4, §5, §6, §7, §8, §9

[4] = system: Proteus vulgaris Wild type
Experimental: as §1, §2, §4, §5, §6, §7, §8, §9

[5] = system: Aspergillus niger Wild type; settings: A. niger
Experimental: as §1, §2, §3, §4, §5, §6, §7
Aspergillus niger cultures were harvested and spores dislodged from the SABD on which they were grown by rubbing the growth gently with a sterile inoculating loop. The spores were then mixed into the broth culture that had been incubated with a sterile magnetic stir bar to reduce pellicle formation. The spore-culture mixture was filtered repeatedly through sterile, nonabsorbent cotton and harvested repeatedly, adjusting vegetative cells and spores to a level of 1.0×10^8. A hemocytometer was used to verify the final challenge concentration.
as §8

## OCC1CCC(CO)CC1 (stereo not drawn) [1,4-CHDM, 1,4-cyclohexanedimethanol]
[1]; 0.5% (wt/vol), 3 day
  Grade: 3 (100 to 1000 colonies (thus 1000 to 10,000 CFU/mL))
[1]; 0.5% (wt/vol), 14 day
  Grade: 4 (1000 to 10,000 colonies countable (thus 10,000 CFU/mL to 100,000 CFU/mL))
[1]; 0.5% (wt/vol), 30 day
  Grade: 4 (1000 to 10,000 colonies countable (thus 10,000 CFU/mL to 100,000 CFU/mL))
[1]; 1.25% (wt/vol), 3 day
  Grade: 1 (0 to 51 colonies counted (thus 10 to 510 CFU/mL based on 0.1-mL sample))
[1]; 1.25% (wt/vol), 14 day
  Grade: 3 (100 to 1000 colonies (thus 1000 to 10,000 CFU/mL))
[1]; 1.25% (wt/vol), 30 day
  Grade: 4 (1000 to 10,000 colonies countable (thus 10,000 CFU/mL to 100,000 CFU/mL))
[1]; 2.5% (wt/vol), 3 day
  Grade: 0
[1]; 2.5% (wt/vol), 14 day
  Grade: 2 (52 to 100 colonies counted (thus 520 to 1000 CFU/mL))
[1]; 2.5% (wt/vol), 30 day
  Grade: 1 (0 to 51 colonies counted (thus 10 to 510 CFU/mL based on 0.1-mL sample))
[1]; 5.0% (wt/vol), 3 day
  Grade: 0
[1]; 5.0% (wt/vol), 14 day
  Grade: 0
[1]; 5.0% (wt/vol), 30 day
  Grade: 0
[2]; 0.5% (wt/vol), 3 day
  Grade: 4 (1000 to 10,000 colonies countable (thus 10,000 CFU/mL to 100,000 CFU/mL))
[2]; 0.5% (wt/vol), 14 day
  Grade: 4 (1000 to 10,000 colonies countable (thus 10,000 CFU/mL to 100,000 CFU/mL))
[2]; 0.5% (wt/vol), 30 day
  Grade: 4 (1000 to 10,000 colonies countable (thus 10,000 CFU/mL to 100,000 CFU/mL))
[2]; 1.25% (wt/vol), 3 day
  Grade: 4 (1000 to 10,000 colonies countable (thus 10,000 CFU/mL to 100,000 CFU/mL))
[2]; 1.25% (wt/vol), 14 day
  Grade: 2 (52 to 100 colonies counted (thus 520 to 1000 CFU/mL))
[2]; 1.25% (wt/vol), 30 day
  Grade: 4 (1000 to 10,000 colonies countable (thus 10,000 CFU/mL to 100,000 CFU/mL))
[2]; 2.5% (wt/vol), 3 day
  Grade: 0
[2]; 2.5% (wt/vol), 14 day
  Grade: 0
[2]; 2.5% (wt/vol), 30 day
  Grade: 0
[2]; 5.0% (wt/vol), 3 day
  Grade: 0
[2]; 5.0% (wt/vol), 14 day
  Grade: 0
[2]; 5.0% (wt/vol), 30 day
  Grade: 0
[3]; 0.5% (wt/vol), 3 day
  Grade: 4 (1000 to 10,000 colonies countable (thus 10,000 CFU/mL to 100,000 CFU/mL))
[3]; 0.5% (wt/vol), 14 day
  Grade: 4 (1000 to 10,000 colonies countable (thus 10,000 CFU/mL to 100,000 CFU/mL))
[3]; 0.5% (wt/vol), 30 day
  Grade: 4 (1000 to 10,000 colonies countable (thus 10,000 CFU/mL to 100,000 CFU/mL))
[3]; 1.25% (wt/vol), 3 day
  Grade: 3 (100 to 1000 colonies (thus 1000 to 10,000 CFU/mL))
[3]; 1.25% (wt/vol), 14 day
  Grade: 2.7
[3]; 1.25% (wt/vol), 30 day
  Grade: 4 (1000 to 10,000 colonies countable (thus 10,000 CFU/mL to 100,000 CFU/mL))
[3]; 2.5% (wt/vol), 3 day
  Grade: 1.7
[3]; 2.5% (wt/vol), 14 day
  Grade: 1 (0 to 51 colonies counted (thus 10 to 510 CFU/mL based on 0.1-mL sample))
[3]; 2.5% (wt/vol), 30 day
  Grade: 0
[3]; 5.0% (wt/vol), 3 day
  Grade: 0
[3]; 5.0% (wt/vol), 14 day
  Grade: 0
[3]; 5.0% (wt/vol), 30 day
  Grade: 0
[4]; 0.5% weight/volume
  P. vulgaris growth grade, 3 day: 4 (1000 to 10,000 colonies countable (thus 10,000 CFU/mL to 100,000 CFU/mL))
  P. vulgaris growth grade, 13 day: 4 (1000 to 10,000 colonies countable (thus 10,000 CFU/mL to 100,000 CFU/mL))
  P. vulgaris growth grade, 30 day: 4 (1000 to 10,000 colonies countable (thus 10,000 CFU/mL to 100,000 CFU/mL))
[4]; 1.25% weight/volume
  P. vulgaris growth grade, 3 day: 3 (100 to 1000 colonies (thus 1000 to 10,000 CFU/mL))
  P. vulgaris growth grade, 13 day: 2 (52 to 100 colonies counted (thus 520 to 1000 CFU/mL))
  P. vulgaris growth grade, 30 day: 0
[4]; 2.5% weight/volume
  P. vulgaris growth grade, 3 day: 1 (0 to 51 colonies counted (thus 10 to 510 CFU/mL based on 0.1-mL sample))
  P. vulgaris growth grade, 13 day: 0
  P. vulgaris growth grade, 30 day: 0
[4]; 5.0% weight/volume
  P. vulgaris growth grade, 3 day: 0
  P. vulgaris growth grade, 13 day: 0
  P. vulgaris growth grade, 30 day: 0
[5]; 0.5% (wt/vol), 3 day
  Grade: 4
[5]; 0.5% (wt/vol), 13 day
  Grade: 4
[5]; 0.5% (wt/vol), 30 day
  Grade: 4
[5]; 1.25% (wt/vol), 3 day
  Grade: 4
[5]; 1.25% (wt/vol), 13 day
  Grade: 4
[5]; 1.25% (wt/vol), 30 day
  Grade: 4
[5]; 2.5% (wt/vol), 3 day
  Grade: 2 (Countable (10 to 100 colonies))
[5]; 2.5% (wt/vol), 13 day
  Grade: 1 (Countable (1 to 10 colonies))
[5]; 2.5% (wt/vol), 30 day
  Grade: 2.3
[5]; 5.0% (wt/vol), 3 day
  Grade: 0
[5]; 5.0% (wt/vol), 13 day
  Grade: 0
[5]; 5.0% (wt/vol), 30 day
  Grade: 0
